One block for each molecule: values may come before it. Calls of active or inactive are those of the source. The calls are words filed in the database; no cut-off is given here.
Legend:
[1] = target: T1, Protease (Human immunodeficiency virus 1, UniProt Q9YQ12); assay: Inhibition of HIV1 protease
[2] = target: Human immunodeficiency virus type 1 integrase (Human immunodeficiency virus 1, UniProt Q7ZJM1); assay: Inhibition of HIV1 integrase strand transfer activity
[3] = Inhibition of HIV2 protease; parameters: species or system Human immunodeficiency virus 2
[4] = target: T1, Protease; assay: Inhibition of recombinant HIV1 protease after 30 mins by reverse phase HPLC
[5] = target: Protease (Human immunodeficiency virus 1) (UniProt Q9YQ12); assay: (§1) Inhibition of HIV1 protease dimerization by Zhang-Poorman kinetic assay
[6] = target: T1, Protease; assay: Competitive inhibition of HIV1 protease by Lineweaver-Burke plot analysis
[7] = target: T1, Protease; assay: as §1

SMILES: CC(C)c1cc2c(c(O)c1O)[C@@]1(C(=O)O)CCCC(C)(C)[C@@H]1CC2 [CARNOSIC ACID]
IC50 [1]: 0.24 µM

IC50 [2]: 40 µM | IC50 [1]: 100 µM | IC50 [3]: 250 µM
SMILES: COc1cc(/C=C/C(=O)CC(=O)/C=C/c2ccc(O)c(OC)c2)ccc1O [CURCUMIN]

IC50 [4]: 2.9 µM | inhibition [5]: inactive | Ki [6]: 4 µM
SMILES: CC(C)=CCC/C(C)=C/CC/C(=C/Cc1cc(O)ccc1O)C(=O)O [GANOMYCIN B]

IC50 [4]: 21.9 µM
SMILES: CC(C)=CCC/C(C)=C/CCC1=C[C@@H](c2cc(O)ccc2O)OC1=O [GANOMYCIN I]

Ki [7]: 17.5 µM
SMILES: CC1=CC[C@H]([C@@H](C)[C@H]2CC[C@@]3(C)C4=C(C=C5C=CC(=O)OC(C)(C)[C@@H]5CC4)CC[C@]23C)OC1=O [SCHISANLACTONE A]

— ChEMBL document CHEMBL1154341, “Inhibition of the dimerization and active site of HIV-1 protease by secondary metabolites from the Vietnamese mushroom Ganoderma colossum” (J Nat Prod, 2009)
